Data from patent publication US20260262643A1, “HERBICIDAL BENZOXAZINES” (FMC CORPORATION, priority 2022, published 2026).

Assays:
blackgrass [1] = assay: Test A preemergence; format: in vivo, Alopecurus myosuroides
Outline: (§1)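 Seeds in loam–sand blend received a directed preemergence soil spray of compound in non-phytotoxic solvent with surfactant; postemergence plants (2–10 cm, one- to two-leaf stage) were sprayed with the same formulation. After 10 days in greenhouse, injury was rated visually versus untreated controls, 0 (no effect) to 100 (complete control).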

corn [2] = assay: Test A preemergence; format: in vivo, Zea mays
Outline: as §1

foxtail, giant [3] = assay: Test A preemergence; format: in vivo, Setaria faberi
Outline: as §1

goosegrass [4] = assay: Test A preemergence; format: in vivo, Eleusine indica
Outline: as §1

kochia [5] = assay: Test A preemergence; format: in vivo, Bassia scoparia
Outline: as §1

oat, wild [6] = assay: Test A preemergence; format: in vivo, Avena fatua
Outline: as §1

pigweed, palmer [7] = assay: Test A preemergence; format: in vivo, Amaranthus palmeri
Outline: as §1

ragweed [8] = assay: Test A preemergence; format: in vivo, Ambrosia artemisiifolia
Outline: as §1

ryegrass, Italian [9] = assay: Test A preemergence; format: in vivo, Lolium multiflorum
Outline: as §1

soybean [10] = assay: Test A preemergence; format: in vivo, Glycine max
Outline: as §1

wheat [11] = assay: Test A preemergence; format: in vivo, Triticum aestivum
Outline: as §1

blackgrass [12] = assay: Test A postemergence; format: in vivo, Alopecurus myosuroides
Outline: as §1

corn [13] = assay: Test A postemergence; format: in vivo, Zea mays
Outline: as §1

foxtail, giant [14] = assay: Test A postemergence; format: in vivo, Setaria faberi
Outline: as §1

goosegrass [15] = assay: Test A postemergence; format: in vivo, Eleusine indica
Outline: as §1

kochia [16] = assay: Test A postemergence; format: in vivo, Bassia scoparia
Outline: as §1

oat, wild [17] = assay: Test A postemergence; format: in vivo, Avena fatua
Outline: as §1

pigweed, palmer [18] = assay: Test A postemergence; format: in vivo, Amaranthus palmeri
Outline: as §1

ragweed [19] = assay: Test A postemergence; format: in vivo, Ambrosia artemisiifolia
Outline: as §1

ryegrass, Italian [20] = assay: Test A postemergence; format: in vivo, Lolium multiflorum
Outline: as §1

soybean [21] = assay: Test A postemergence; format: in vivo, Glycine max
Outline: as §1

wheat [22] = assay: Test A postemergence; format: in vivo, Triticum aestivum
Outline: as §1

galium = assay: Test A postemergence; format: in vivo, Galium aparine
Outline: as §1

horseweed = assay: Test A postemergence; format: in vivo, Erigeron canadensis
Outline: as §1

barnyardgrass = assay: Test B flooded paddy test; format: in vivo, Echinochloa crus-galli; conditions: 250 g ai/ha, Flood, 13 days, 0 to 100 scale (0 no effect, 100 complete control)
Outline: (§2)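 Visual scores from 0 (no effect) to 100 (complete kill) were assigned 13 days after treatment by comparison with controls. Seedlings had been treated at two leaves by adding compound to floodwater standing 3 cm deep, kept at that level in the greenhouse.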

ducksalad = assay: Test B flooded paddy test; format: in vivo, Heteranthera limosa; conditions: 250 g ai/ha, Flood, 13 days, 0 to 100 scale (0 no effect, 100 complete control)
Outline: as §2

rice = assay: Test B flooded paddy test; format: in vivo, Oryza sativa; conditions: 250 g ai/ha, Flood, 13 days, 0 to 100 scale (0 no effect, 100 complete control)
Outline: as §2

sedge, umbrella = assay: Test B flooded paddy test; format: in vivo, Cyperus difformis; conditions: 250 g ai/ha, Flood, 13 days, 0 to 100 scale (0 no effect, 100 complete control)
Outline: as §2

[23] = 125 g ai/ha, visual injury after 10 days, 0 to 100 scale, 0 is no effect, 100 is complete control
[24] = 500 g ai/ha, 0 to 100 scale (0 no effect, 100 complete control), 10 days
[25] = 125 g ai/ha, postemergence, 10 days, visual injury, 0 to 100 scale (0 no effect, 100 complete control)
[26] = 500 g ai/ha, Postemergence, 0 to 100 scale

CC1CN(C(=O)c2cccc(-n3cncn3)c2)c2c(F)cccc2O1 (stereo not shown) [Compound 28] was tested, and the “Plant response rating, Blackgrass” value (blackgrass [1]; [23]) was 0, the “Plant response rating, Blackgrass” value (blackgrass [1]; [24]) was 60 and the “Plant response rating, Corn” value (corn [2]; [23]) was 0. The “Plant response rating, Corn” value (corn [2]; [24]) was 30, the “Plant response rating, Foxtail, Giant” value (foxtail, giant [3]; [23]) was 30 and the “Plant response rating, Foxtail, Giant” value (foxtail, giant [3]; [24]) was 90. For the same compound, the “Plant response rating, Goosegrass” value (goosegrass [4]; [23]) was 20, the “Plant response rating, Goosegrass” value (goosegrass [4]; [24]) was 80 and the “Plant response rating, Kochia” value (kochia [5]; [23]) was 0. For the same compound, the “Plant response rating, Kochia” value (kochia [5]; [24]) was 20, the “Plant response rating, Oat, Wild” value (oat, wild [6]; [23]) was 0 and the “Plant response rating, Oat, Wild” value (oat, wild [6]; [24]) was 0. For the same compound, the “Plant response rating, Pigweed, Palmer” value (pigweed, palmer [7]; [23]) was 0, the “Plant response rating, Pigweed, Palmer” value (pigweed, palmer [7]; [24]) was 50 and the “Plant response rating, Ragweed” value (ragweed [8]; [23]) was 0. For the same compound, the “Plant response rating, Ragweed” value (ragweed [8]; [24]) was 20, the “Plant response rating, Ryegrass, Italian” value (ryegrass, Italian [9]; [23]) was 40 and the “Plant response rating, Ryegrass, Italian” value (ryegrass, Italian [9]; [24]) was 90. For the same compound, the “Plant response rating, Soybean” value (soybean [10]; [23]) was 0, the “Plant response rating, Soybean” value (soybean [10]; [24]) was 0 and the “Plant response rating, Wheat” value (wheat [11]; [23]) was 0. For the same compound, the “Plant response rating, Wheat” value (wheat [11]; [24]) was 10, the “Plant response rating, Blackgrass” value (blackgrass [12]; [25]) was 30 and the “Plant response rating, Blackgrass” value (blackgrass [12]; [26]) was 80. For the same compound, the “Plant response rating, Corn” value (corn [13]; [25]) was 0, the “Plant response rating, Corn” value (corn [13]; [26]) was 20 and the “Plant response rating, Foxtail, Giant” value (foxtail, giant [14]; [25]) was 0. The “Plant response rating, Foxtail, Giant” value (foxtail, giant [14]; [26]) was 70, the “Plant response rating, Goosegrass” value (goosegrass [15]; [25]) was 0 and the “Plant response rating, Goosegrass” value (goosegrass [15]; [26]) was 50. The “Plant response rating, Kochia” value (kochia [16]; [25]) was 0, the “Plant response rating, Kochia” value (kochia [16]; [26]) was 20 and the “Plant response rating, Oat, Wild” value (oat, wild [17]; [25]) was 20. The “Plant response rating, Oat, Wild” value (oat, wild [17]; [26]) was 30, the “Plant response rating, Pigweed, Palmer” value (pigweed, palmer [18]; [25]) was 0 and the “Plant response rating, Pigweed, Palmer” value (pigweed, palmer [18]; [26]) was 20. The “Plant response rating, Ragweed” value (ragweed [19]; [25]) was 0, the “Plant response rating, Ragweed” value (ragweed [19]; [26]) was 0 and the “Plant response rating, Ryegrass, Italian” value (ryegrass, Italian [20]; [25]) was 0. The “Plant response rating, Ryegrass, Italian” value (ryegrass, Italian [20]; [26]) was 70, the “Plant response rating, Soybean” value (soybean [21]; [25]) was 90 and the “Plant response rating, Soybean” value (soybean [21]; [26]) was 90. The “Plant response rating, Wheat” value (wheat [22]; [25]) was 10, the “Plant response rating, Wheat” value (wheat [22]; [26]) was 30 and the “Plant response rating, Galium” value (galium; [25]) was 50. The “Plant response rating, Galium” value (galium; [26]) was 50, the “Plant response rating, Horseweed” value (horseweed; [25]) was 0 and the “Plant response rating, Horseweed” value (horseweed; [26]) was 0. For the same compound, the “Plant response rating, Barnyardgrass” value (barnyardgrass) was 10, the “Plant response rating, Ducksalad” value (ducksalad) was 80 and the “Plant response rating, Rice” value (rice) was 0. For the same compound, the “Plant response rating, Sedge, Umbrella” value (sedge, umbrella) was 0.
